# Key:
# R. oryzae [1] = assay: Survival of guinea pigs infected with R. oryzae and treated with iron chelators; type: in vivo; details: guinea pigs infected with R. oryzae
# Source text: The role of iron metabolism in the pathogenesis of mucormycosis allows the possibility of utilizing effective iron chelators for antifungal therapy, including as an adjunctive antifungal therapy.
# R. oryzae [2] = assay: Tissue fungal burden of DKA mice infected with R. oryzae; type: in vivo, BALB/c male mice; details: 3.8×10^3 spores, two doses, brains harvested about 54 h post-infection, P<0.036
# Description: (§1) Briefly, for in vivo infection, BALB/c male mice (>20 g) were rendered diabetic with a single i.p. injection of 210 mg/kg streptozotocin in 0.2 ml citrate buffer 10 days prior to fungal challenge. […] Mice were infected through the tail vein with the appropriate inocula of R. oryzae. To confirm the inocula, dilutions were streaked on PDA plates and colonies were counted following a 24 h incubation period at room temperature. The primary efficacy endpoint was time to death. As a secondary endpoint, brain fungal burden (the primary target organ) was determined by homogenization by rolling a pipette on organs placed in Whirl-Pak bags (Nasco, Fort Atkinson, Wis.) containing 2 ml saline. The homogenate was serially diluted in 0.85% saline and then quantitatively cultured on PDA. Values were expressed as log 10 cfu g^−1 tissue. All procedures involving mice were approved by the institutional animal use and care committee, following the National Institutes of Health guidelines for animal housing and care.
# (§2) For in vivo infection, BALB/c male mice (>20 g) were rendered diabetic with a single i.p. injection of 210 mg/kg streptozotocin in 0.2 ml citrate buffer 10 days prior to fungal challenge. […] For neutropenic mouse model, mice were injected with a single i.p. dose of 200 mg/kg cyclolphosphamide (Bristol Myer Squibb) 2 days prior to infection with R. oryzae. […] Mice were infected through the tail vein with the appropriate inocula of R. oryzae. To confirm the inocula, dilutions were streaked on PDA plates containing 0.1% triton and colonies were counted following a 24 h incubation period at 37° C. The primary efficacy endpoint was time to death. As a secondary endpoint, brain fungal burden (the primary target organ) was determined by homogenization by rolling a pipette on organs placed in Whirl-Pak™ bags (Nasco®, Fort Atkinson, Wis.) containing 1 ml saline. The homogenate was serially diluted in 0.85% saline and then quantitatively cultured on PDA. Values were expressed as log10 cfu g−1 tissue. Finally, for histopathological analysis, infected organs were collected from mice and fixed in 10% zinc formalin. Fixed tissues were embedded in paraffin, and […] sections were stained with haematoxylin and eosin for light microscopy examination. All procedures involving mice were approved by the institutional animal use and care committee, following the National Institutes of Health guidelines for animal housing and care.
# R. oryzae [3] = assay: Survival of neutropenic mice infected with R. oryzae; type: in vivo; details: prophylaxis from day −1, Def qod, LAmB qd or both, four doses, placebo 0%
# Description: as §2
# Two days later, mice were infected via the tail-vein with 2.7×10^3 spores of R. oryzae 99-892.
# R. oryzae 99-880 = assay: MIC and MFC of deferiprone and deferoxamine against R. oryzae; type: cell-based, Rhizopus oryzae; details: for MFC / MIC: R. oryzae
# Description: Initially, the in vitro activity of deferiprone against R. oryzae was assessed in this study. Briefly, R. oryzae 99-880 was isolated from a brain abscess of a diabetic patient. The organism was grown on potato dextrose agar (PDA) for 3 days at 37° C. In some experiments, R oryzae was starved for iron by growth on PDA in the presence of 1 mM of ascorbic acid and ferrozine. The sporangiospores were collected in endotoxin free PBS containing 0.01% Tween 80, washed with PBS then counted with hemacytometer to prepare the final inocula. For susceptibility testing, the minimum inhibitory concentration (MIC) and minimum fungicidal concentration (MFC) were determined for Def and deferoxamine by the method of Espinel-Ingroff (J Clin Microbiol 39:954 (2001)).
# R. oryzae [4] = assay: Survival of diabetic ketoacidotic (DKA) mice infected with R. oryzae; type: in vivo, BALB/c male mice; details: for survival compared to placebo: 4.3×10^3 spores; for efficacy of Def on administration of FeCl3: Def 100 mg/kg qod plus FeCl3 60 mg/kg iv
# Description: as §1
# Deferiprone (Apotex Research Inc.) was dissolved in iron-free water and administered intraperitoneally at 50, 100, or 200 mg/kg qd or qod (every other day). Treatment was begun 24 h post infection and continued for a total of 4 doses. Control groups were treated with the diluent, 5% dextrose water.
# Deferiprone is known to form molecular complexes with ferric iron (^3+Fe) in a 1:3 ratio of iron to deferiprone. Based on the known molecular weights of ferric chloride (FeCl3, molecular weight 162.22 g/mol) and deferiprone (molecular weight 139 g/mol), a 60 mg/kg dose of FeCl3 was calculated to result in a significant excess of ^3+Fe vs. a 100 mg/kg dose of deferiprone given to an 18 g mouse: ^3+Fe moles=(0.060 g/kg*0.018 kg [mouse weight]/162.22 g/mol)=6.5×10^−6 mol vs. deferiprone moles=(0.1 g/kg*0.018 kg [mouse weight]/139 g/mol)=1.3×10^−5 mol Ratio=1:2 moles of ^3+Fe to deferiprone, which is more than that required to achieve a saturating 1:3 ratio.
# Statistical analysis was performed using the nonparametric log rank test was used to determine differences in survival times of the mice. Differences in tissue fungal burdens in the infected organs were compared by the nonparametric Steel test for multiple comparisons. P values of <0.05 were considered significant.
# Deferasirox (Novartis Pharmaceuticals, Basel, Switzerland) was suspended in 0.5% hydroxypropylcellulose (Klucel) and administered by oral gavage at 1, 3, or 10 mg/kg […] (qd) or every other day (qod). Treatment was begun 24 h post infection and continued for a total of 5 or 7 doses. Control groups were treated with the diluent, 5% dextrose water and 0.5% Klucel. In some experiments, a saturating dose of free iron was administered with deferasirox. Deferasirox is known to form molecular complexes with ferric iron (^3+Fe) in a 1:2 ratio of iron to deferasirox. Based on the known molecular weights of ferric chloride (FeCl3, molecular weight 162.22 g/mol) and deferasirox (molecular weight 373.4 g/mol), a 2.8 mg/kg dose of FeCl3 was calculated to result in a significant excess of ^3+Fe vs. a 10 mg/kg dose of deferasirox given to an 18 g mouse: ^3+Fe moles=(0.0028 g/kg*0.018 kg [mouse weight]/162.22 g/mol)=3×10^−7 mol vs. deferasirox moles=(0.01 g/kg*0.018 kg [mouse weight]/373.4 g/mol)=5×10^−7 mol Ratio=1:1.7 moles of ^3+Fe to deferasirox, which is more than that required to achieve a saturating 1:2 ratio.
# The nonparametric log rank test was used to determine differences in survival times of the mice. Differences in tissue fungal burdens, splenic lymphocyte frequencies, and whole organ cytokines in the infected organs were compared by the Mann Whitney U test. P values of <0.05 were considered significant.
# invasive mucormycosis = details: patients treated with deferoxamine; cited from earlier work
# [5] = Rhizopus arrhizus, 99880, 24 h, 24 h
# [6] = Rhizopus arrhizus, 99880, 48 h, 48 h
Compound,Mean (±SD) Survival Time (R. oryzae [1]) [days],brain fungal burden compared to placebo (R. oryzae [2]),survival (R. oryzae [3]) [%],static or cidal effect against R. oryzae (R. oryzae 99-880; 24 h of incubation),"static or cidal effect against R. oryzae (R. oryzae 99-880; 24 h of incubation, listed as deferiprone)",static or cidal effect against R. oryzae (R. oryzae 99-880; 48 h of incubation),"static or cidal effect against R. oryzae (R. oryzae 99-880; 48 h of incubation, listed as deferiprone)",MFC (R. oryzae 99-880; 48 h) [µg/mL],MIC (R. oryzae 99-880; [5]) [µg/mL],MIC (R. oryzae 99-880; [6]) [µg/mL],"28-day survival (R. oryzae [4]; DKA mice infected with R. oryzae, treatment from 24 h post infection, 4 doses, LAmB 15 mg/kg qd iv, Def 100 mg/kg qod ip, placebo 0%) [%]","survival compared to placebo (R. oryzae [4]; DKA mice, 50 mg/kg qd or qod)","survival compared to placebo (R. oryzae [4]; DKA mice, 100 mg/kg qd or 200 mg/kg qd or qod)","survival compared to placebo (R. oryzae [4]; DKA mice, 100 mg/kg qod, 4 doses from 24 h post infection, P=0.027)",efficacy of Def on administration of FeCl3 (R. oryzae [4]; DKA mice),"efficacy of Def on administration of FeCl3 (R. oryzae [4]; DKA mice, listed as Def)","28-day survival compared to placebo (R. oryzae [4]; DKA mice, LAmB 15 mg/kg qd or deferiprone 100 mg/kg qod, P<0.003 Log Rank)",mortality of invasive mucormycosis (invasive mucormycosis) [%],"MFC (R. oryzae 99-880; 24 h, listed as deferoxamine) [µg/mL]","MFC (R. oryzae 99-880; 48 h, listed as deferoxamine) [µg/mL]"
"Cc1c(O)c(=O)ccn1C [Deferiprone, 1,2 dimethyl-3-hydroxypyrid-4-1]",16.2 ± 4.0,reduced brain fungal burden,22,static,static effect,cidality,cidal effect,6.25,3.12,6.25,30,did not improve survival,did not improve survival,improved survival,completely abrogated,abrogated,improved 28-day survival,–,–,–
CCc1c(O)c(=O)ccn1CC [CP94],8.7 ± 1.0,–,–,–,–,–,–,–,–,–,–,–,–,–,–,–,–,–,–,–
CC(=O)N(O)CCCCCNC(=O)CCC(=O)N(O)CCCCCNC(=O)CCC(=O)N(O)CCCCCN [Deferoxamine],4.8 ± 1.1,–,–,–,–,–,–,–,> 100,> 100,–,–,–,–,–,–,–,> 80,> 100,> 100
